Data as given in patent publication US20240325353A1, “COMPOUND FOR TREATMENT OF COGNITIVE DISORDERS” (Syndesi Therapeutics SA, priority 2021, published 2024).
Values joined by “and” are separate entries in the source; they are usually repeats but may differ in a detail not shown here. Equal entries are not always repeated.

Legend:
[1] = repeat dose pharmacokinetics in humans; type: in vivo, human; details: once daily repeat dosing, all doses
[2] = biological target: T1, synaptic vesicle glycoprotein 2A (Homo sapiens, UniProt Q7L0J3); experiment: [11C]-UCB-J PET receptor occupancy after single oral dose, healthy male subjects, with PK/occupancy model; type: in vivo; details: for receptor occupancy: individual subjects
T1 construct: from tissue; host or cells: brain of living healthy male subjects (PET)
T1 sequence (Q7L0J3 whole entry): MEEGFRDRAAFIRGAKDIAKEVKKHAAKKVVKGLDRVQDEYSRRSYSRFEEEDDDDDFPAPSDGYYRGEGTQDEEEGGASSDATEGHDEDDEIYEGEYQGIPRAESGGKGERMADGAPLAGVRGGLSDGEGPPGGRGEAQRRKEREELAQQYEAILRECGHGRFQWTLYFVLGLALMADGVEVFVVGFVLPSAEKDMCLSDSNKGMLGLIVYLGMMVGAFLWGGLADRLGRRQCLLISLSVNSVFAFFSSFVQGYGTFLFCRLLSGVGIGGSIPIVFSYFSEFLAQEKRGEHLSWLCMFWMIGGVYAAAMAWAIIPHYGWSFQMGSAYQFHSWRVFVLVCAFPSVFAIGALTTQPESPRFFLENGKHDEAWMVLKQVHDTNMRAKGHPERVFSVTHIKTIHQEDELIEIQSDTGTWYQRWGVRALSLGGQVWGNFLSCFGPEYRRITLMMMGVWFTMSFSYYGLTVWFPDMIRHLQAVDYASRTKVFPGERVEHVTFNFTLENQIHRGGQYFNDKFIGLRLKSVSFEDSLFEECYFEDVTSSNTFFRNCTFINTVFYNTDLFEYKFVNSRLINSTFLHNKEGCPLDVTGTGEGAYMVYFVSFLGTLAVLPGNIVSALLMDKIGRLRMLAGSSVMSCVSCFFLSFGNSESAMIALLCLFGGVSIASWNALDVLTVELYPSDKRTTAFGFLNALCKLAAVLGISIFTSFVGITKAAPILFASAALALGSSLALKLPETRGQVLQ
Method: All images were acquired using the PET/MR Scanner: GE Signa TOF PET-MR 3 Tesla with software version MP26. As gamma counter, a 1480 Wizard well type gamma counter met 3-inch NaI crystal was used.
[^11C]-UCB-J is a PET tracer for imaging the synaptic vesicle glycoprotein 2A in the human brain. [^11C]-UCB-J is (4R)-1-{[3-(^11C)Methylpyridin-4-yl]methyl}-4-(3,4,5-trifluorophenyl)pyrrolidin-2-one.
Participants arrived approximately 90 minutes prior to the scheduled scan. This allowed the positioning of all necessary peripheral catheters before the start of the PET scan. Prior to PET imaging, at the PET centre, an indwelling venous cannula was inserted into an antecubital vein of the forearm to inject the radioligand. When required, an indwelling arterial catheter was placed in the radial artery of the opposite arm (if not feasible, can be in same arm) by a trained physician after numbing the area with a local anaesthetic prior to placement to withdraw blood for the measurement of the PET input function. On each PET scan day, no more than 3 skin penetrations per arm and one arterial penetration per arm were permitted before trying in the other arm. The venous catheter was used for the injection of [^11C]-UCB-J. [^11C]UCB-J was administered as an i.v. bolus into the antecubital vein over approximately 20 seconds. The tracer volume was between 6 ml and 12 ml. With the pump system configured to inject 0.33 ml per second, tracer injection time varied between 18 sec and 36 sec. The arterial catheter was used for collection of arterial blood samples and no participant received more than two arterial catheterizations during their participation in the study. An arterial catheter was maintained for up to 2 days depending on evaluation by medical staff. In case two arterial catheters were placed during the study conduct, then placement in alternate wrists was done. If the medical staff decided to remove an arterial catheter at any given time, a new one was placed for a next scan taking into account that no more than two arterial catheterizations per participant were allowed. Participants were asked to void their bladder before the start of each PET scan. Participants were positioned in the PET scanner so that scans were acquired in 3D list-mode in one bed position and the entire brain volume was included in the field of view. At screening and simultaneous with the PET acquisition, both a 3D volumetric T1-weighted BRAVO sequence (plane: sagittal; TE: 3.2 ms; TR: 8.5 ms; TI: 450 ms; Flip Angle: 12; Receiver Bandwidth: 31.2; NEX: 1; voxelsize: 1×1×1 mm) and 3D T2-weighted CUBE FLAIR sequence (plane: sagittal direction; TE: 137 ms; #echoes: 1; echo train length: 190; TR: 8500 ms; […]; Receiver Bandwidth: 31.25; NEX: 1; voxelsize: 1.2×1.3×1.4 mm) were acquired to detect possible structural abnormalities, and serve as an anatomical reference to define ROIs when co-registered with the PET scan. To correct for attenuation, a Zero-Echo Time (ZTE) scan was taken to allow the generation of a MR based attenuation map. At intermediate time points during acquisition, the ZTE sequence was repeated to have additional data for adjusting the MR based attenuation map in case of severe head motion. Next to anatomical MR sequences, eASL and rs-fMRI data were acquired simultaneously with the PET data, to determine regional cerebral blood flow and regional interactions in the brain in a resting or task-negative state. At least one eASL and one rs-fMRI sequence were performed during the PET acquisition but these sequences were repeated if time allowed. The total duration of the emission scan was 90 minutes. PET data will be rebinned in time frames according to the following scheme: • 6×15s-3×30s-3×60s-2×90s-2×3 min-9×5 min-3×10 min […]

[3] = treatment-emergent adverse events, multiple dose study in young male subjects; type: in vivo, human
Text: Details on the adverse events occurring in the study is provided below. As may be seen the doses of interest were safe and well tolerated.

time to reach steady state [1]: 8 to 10 days
receptor occupancy ([2]; 1 mg single oral dose, 22 h): below level of detection
receptor occupancy ([2]; 1 mg single oral dose, tmax (2 h)): 25% and 21%
receptor occupancy ([2]; 2 mg single oral dose, 22 h): 19% and 20%
receptor occupancy ([2]; 2 mg single oral dose, tmax (2 h)): 42% and 39%
receptor occupancy ([2]; 10 mg single oral dose, 22 h): 46% and 50%
receptor occupancy ([2]; 10 mg single oral dose, tmax (2 h)): 68% and 69%
receptor occupancy ([2]; 20 mg single oral dose, 26 h): 56% and 66%
receptor occupancy ([2]; 20 mg single oral dose, tmax (2 h)): 76%
emax of PK/occupancy model (mean) ([2]; humans): 84.9
EC50 ([2]; humans, plasma concentration, read-out: EC50, plasma concentration vs SV2A occupancy (PK/occupancy model, mean) (converted)): 75.3 nM
SMILES: O=C1C[C@H](c2cc(F)c(F)c(F)c2)CN1Cn1ncnc1Cl [compound of example 1, (4R)-1-[(5-chloro-1H-1,2,4-triazol-1-yl)methyl]-4-(3,4,5-trifluorophenyl)pyrrolidin-2-one]
At least 1 TEAE definitively related to treatment, n (%) ([3]; 5 mg, N = 6): 0 n (%)
At least 1 TEAE possibly related to treatment, n (%) ([3]; 5 mg, N = 6): 0 n (%)
At least 1 TEAE probably related to treatment, n (%) ([3]; 5 mg, N = 6): 0 n (%)
At least one TEAE, n (%) ([3]; 5 mg, N = 6): 0 n (%)
At least 1 TEAE definitively related to treatment, n (%) ([3]; 10 mg, N = 6): 0 n (%)
At least 1 TEAE possibly related to treatment, n (%) ([3]; 10 mg, N = 6): 0 n (%)
At least 1 TEAE probably related to treatment, n (%) ([3]; 10 mg, N = 6): 1 (16.7) n (%)
At least one TEAE, n (%) ([3]; 10 mg, N = 6): 2 (33.3) n (%)
At least 1 TEAE definitively related to treatment, n (%) ([3]; 20 mg, N = 6): 0 n (%)
At least 1 TEAE possibly related to treatment, n (%) ([3]; 20 mg, N = 6): 4 (66.7) n (%)
At least 1 TEAE probably related to treatment, n (%) ([3]; 20 mg, N = 6): 0 n (%)
At least one TEAE, n (%) ([3]; 20 mg, N = 6): 4 (66.7) n (%)
At least 1 TEAE definitively related to treatment, n (%) ([3]; all doses, N = 18): 0 n (%)
At least 1 TEAE possibly related to treatment, n (%) ([3]; all doses, N = 18): 4 (22.2) n (%)
At least 1 TEAE probably related to treatment, n (%) ([3]; all doses, N = 18): 1 (5.6) n (%)
At least one TEAE, n (%) ([3]; all doses, N = 18): 6 (33.3) n (%)
